Results on 1 molecule are retold here after EP0369733A2, “Fluorescent indicator dyes for alkali metal cations, their preparation and use” (THE REGENTS OF THE UNIVERSITY OF CALIFORNIA, priority 1988, dated 1990).

Molecules are shown by their SMILES.

Series [1] in a line: UV absorbance spectra without and with saturating cation. The format is physicochemical. The procedure:
(§1) • Footnote a: For molecular structures, see Fig. 1. • Footnote b: Except where otherwise noted, these dissociation constants were measured with the chelator dissolved in 0.1 M tetramethylammonium chloride, at a pH held high enough with 1-5 mM tris(hydroxymethyl)aminomethane for protonation to be insignificant. The absorbance spectrum, or the fluorescence excitation spectrum for those compounds (2GG, 2NN, 2OO, 2PP, 3NN) with acronyms was measured as a function of the concentration of cation added as a solid or concentrated aqueous solution of the halide salt. No correction has been made for the changing ionic strength of the solution, which started from 0.1 M and increased, but the absorbances and fluorescence amplitudes were applied for dilution of the dye and any slight quenching due to high concentrations of Cl⁻. • Footnote c: These protonation constants were determined in 0.1 M tetramethylammonium chloride, 10 mM tris(hydroxymethyl)aminomethane, titrated with 5 M H₃PO₄ to successively lower pH values measured with a Radiometer PHM84 meter. […] The first number is the wavelength in nanometers, followed in parentheses by 10⁻³ x the corresponding extinction coefficient, M⁻¹cm⁻¹. […] Emission maxima are not corrected for the spectral sensitivity of the emission detection. Quantum efficiencies were measured (13) by comparing the integral of the corrected emission spectrum with the corresponding integral for a solution of quinine bisulfate in 1 N H₂SO₄ of matched absorbance at the excitation wavelength.
UV absorbance spectra were recorded initially on a Cary 210 and later on a Perkin-Elmer Lambda Array 3840 spectrophotometer. Fluorescence excitation and emission spectra and quantum efficiencies were measured on a Spex Fluorolog 111 as described previously (13).

The nature of series [2]: Proton dissociation constants in 0.1 M tetramethylammonium chloride. As to conditions: 10 mM Tris titrated with 5 M H₃PO₄.
Series [3] is described as follows: Cation titration followed by absorbance or fluorescence excitation spectra: Na⁺ binding. How it is done:
as §1
(§2) Affinities for other cations were usually measured by titrating aqueous solutions of the indicator with metal chlorides added either as solid or from concentrated stock solutions, taking care to minimize dilution and correct for it. A convenient way to mass-produce premeasured micromole to millimole aliquots of solid NaCl or KCl was to pipet saline solutions into polypropylene micro test tubes and evaporate the water in an oven. The standard ionic background was again 100 mM tetramethylammonium chloride, usually with a few mM of tris(hydroxymethyl)-aminomethane base to hold the pH high enough (pH 8-9) to insure that protonation was negligible. This convenient titration procedure had the slight disadvantage that the ionic strength was not constant, especially when large quantities of a salt had to be added due to weak affinities. […] When constant ionic strength was desired, the chelator was made up at identical concentrations in matched solutions of NaCl, KCl, or tetramethylammonium chloride, then these stocks were mixed in the desired proportions. All measurements were made at room temperature (22°, ±2° C).

Another series can be described thus: physchem. As to conditions: 126 mm kcl, 14 mm nacl.
Series [4] in a line: Non-specific quenching of fluorescence by CsCl. The format is physicochemical. How it is done:
Selectivities of SBFP and SBFI against other cations are also adequate (Table I). […] Ratioing therefore not only normalizes for amount of dye in the optical path but also improves the discrimination against pH changes. […] Dissociation constants for Mg²⁺ and Ca²⁺ are high enough (about 60 mM and 38 mM respectively) for cytosolic levels of those ions to have insignificant effect. Curiously, Ca²⁺ is unique in causing a large hypsochromic shift of the emission peak, to 432 nm. All the above-mentioned salts except tetramethylammonium seem to cause a slight non-specific quenching of SBFI at very high concentrations. For example, CsCl causes no spectral shift at all, but 100, 200, and 500 mM CsCl depress the fluorescence by 9, 14, and 21% from the metal-free level. This effect is not a heavy-atom effect of Cs, since large excesses of Li⁺, Na⁺, and K⁺ also slightly quench their SBFI complexes. It may represent weak quenching by Cl⁻, since acetate and fluoride gave much less of the effect.

Series [5] in a line: Cation titration followed by absorbance or fluorescence excitation spectra: Ca²⁺ binding. The conditions noted are these: 0.1 M tetramethylammonium chloride, 1-5 mM tris(hydroxymethyl)aminomethane, high pH, read-out: Dissociation constants (Kd) in mM for Ca²⁺. How it is done: as §1, §2
Series [6] can be described thus: Cation titration followed by absorbance or fluorescence excitation spectra: K⁺ binding. As to conditions: inert background cations such as tetramethylammonium or Cs⁺, high pH. How it is done: as §1
Affinities for other cations were usually measured by titrating aqueous solutions of the indicator with metal chlorides added either as solid or from concentrated stock solutions, taking care to minimize dilution and correct for it. […] This convenient titration procedure had the slight disadvantage that the ionic strength was not constant, especially when large quantities of a salt had to be added due to weak affinities. […]

Usually pKa stands for the pH at which an ionisable group is half protonated. Low values mean a group that gives up its proton readily, high ones a group that holds its proton tightly.

Protocol for physchem: The lowest curve ([Na⁺] = 0) was obtained with 5 µM SBFI in 130 mM KCl, 10 mM MOPS, KOH to pH 7.05, approximately 135 mM total K⁺. The highest curve ([Na⁺] = 135 mM) was analogously recorded from 5 µM SBFI in 130 mM NaCl, 10 mM MOPS, NaOH to pH 7.05. The intermediate curves from 1.35 to 94.5 mM Na⁺ were obtained by successively 1/100, 1/99, 3/98, 1/19, 1/9, 1/4, and 1/2 of the K⁺-rich SBFI solution by the SBFI in Na medium. The excitation bandwidth was 1.85 nm; emission was collected at 500 nm with 9.3 nm bandwidth. […] The lowest curve was obtained in 130 mM NaCl, 10 mM MOPS, NaOH to pH 7.05. The highest curve was in 130 mM KCl, 10 mM MOPS, KOH to pH 7.05. The intermediate curves with 13.5 to 112.5 mM K⁺ were obtained by iteratively replacing 1/10, 1/9, 1/6, 1/4, 1/3, and 1/2 of the low K⁺ medium by the 135 mM KCl solution of PBFP.
Proton dissociation constants of the chelators were measured by spectrophotometry or spectrofluorometry of buffered solutions, containing either 100 mM tetramethylammonium chloride as inert supporting electrolyte, or 121.5 mM K⁺, 13.5 mM Na⁺, and 1 mM Mg²⁺ to simulate the cation environment of vertebrate cytoplasm (14). […] When the chelators contained two protonatable nitrogens, the curve of absorbance or fluorescence versus pH was analyzed by computerized least-squares fitting to the equations for two arbitrary proton equilibria (15), with the added assumption that the two protonations each caused the same change in extinction coefficient or fluorescence. This assumption was based on the presence of two identical chromophores in each chelator and produced good fits to the experimental data.

`COc1cc2cc(-c3ccc(C(=O)O)cc3C(=O)O)oc2cc1N1CCOCCOCCN(c2cc3oc(-c4ccc(C(=O)O)cc4C(=O)O)cc3cc2OC)CCOCC1` [Compound 2PP, N,N-bis-(2-(2,4-dicarboxyphenyl)-5-methoxybenzofuran-6-yl)-diaza[15]-crown-5]: the “Absorbance maxima -Na⁺ (wavelength)” value in series [1] (100 mM tetramethylammonium chloride plus 1-5 mM Tris, no Na⁺) came out at 346 nanometers. Besides, the “Absorbance maxima +Na⁺ (wavelength)” value in series [1] (enough NaCl added (0.2-1 M) to saturate the Na⁺ binding) was 334 nanometers. The molecule also displayed an Absorbance maxima -Na⁺ (extinction coefficient) in series [1] (number is 10⁻³ x the extinction coefficient, lower limits for most compounds, no Na⁺) of 42000 M⁻¹ cm⁻¹. For the same molecule, the Absorbance maxima +Na⁺ (extinction coefficient) in series [1] (number is 10⁻³ x the extinction coefficient, lower limits, saturating NaCl (0.2-1 M)) is 47000 M⁻¹ cm⁻¹. The extinction coefficients in series [1] (without to with Na⁺, in M-1·cm-1 (unit assumed)) is listed as 42,000-47,000. Besides, the pKa stood at 5.89 in series [2] (first value printed (highest pKa, 1st proton), listed as 2PP (SBFI)); 5.19 in series [2] (second value (second protonation)); 6.09 in “physchem”. Also, the Kd in series [3] (0.1 M tetramethylammonium chloride, 1-5 mM tris(hydroxymethyl)aminomethane, pH high enough for protonation to be insignificant, 22°, read-out: Dissociation constants (Kd) in mM for Na⁺) is 7.4 mM; in series [3] (summary statement, conditions not specified, read-out: dissociation constant (Na⁺), range achieved) it was 5 to 20 mM; in series [5] (listed as 2PP (SBFI)), 38 mM; in series [5] (listed as SBFI), about 38 mM. In addition, the “Na⁺ affinity” value in series [3] (association constant, inert background cation (tetramethylammonium)) worked out at 166 M⁻¹. The “depression of fluorescence from the metal-free level” value was determined as 9% in series [4] (100 mM CsCl), 14% in series [4] (200 mM CsCl) and 21% in series [4] (500 mM CsCl). Further, the “K⁺ affinity” value in series [6] was 7 M⁻¹.
